Some test systems named below: DMS 114 small cell lung; BT-549 breast; MCF7 breast; XF 498 CNS; DLD-1 colon; HOP-18 NSCLC; KM20L2 colon; MDA-MB-231 breast; MDA-N; P388 leukemia; SN12K1 renal.
What all share (test): NCI tumour cell line growth inhibition, 48 h

SMILES strings stand for the structures. “And” between values parts separate entries of the source, which are not always exact repeats. Equal values may be shown once.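 48-hour exposure; five concentrations; linearly interpolated endpoints. GI50 = concentration required for 50% inhibition of growth. TGI marks complete inhibition of growth.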 Where only a bound is given, the exact number is not on record here.

On to `COC1C(O)C(C)OC(OC2C(Oc3cccc4c(O)c5c(=O)oc6ccc(C)c7c(=O)oc(c34)c5c67)OC(C)C3O[C@H](c4ccccc4)OC32)C1O` (stereo partly specified), for which the TGI was 2.69 µM in the assay on DMS 114 small cell lung; 6.27 µM with BT-549 breast; 4.12 µM in the assay on MCF7 breast; 2.21 µM in the assay with XF 498 CNS; 8.67 µM with DLD-1 colon; 13.6 µM in the assay on HOP-18 NSCLC. Also, the figures for the TGI in the assay on KM20L2 colon, with MDA-MB-231 breast and in the assay with MDA-N were 2.98 µM, 7.78 µM and 10.4 µM, respectively. Moreover, the GI50 in the assay on BT-549 breast was 0.685 µM and 1.5 µM; in the assay with MCF7 breast, 0.225 µM; in the assay on MDA-MB-231 breast it was 0.455 µM; in the assay on MDA-N, 0.327 µM.
For the compound `C/C=C(\C)c1cc(=O)c2c(C)cc3c(c2o1)C(=O)c1c(O)c(C2CC(C)(N(C)C)C(O)C(C)O2)cc(C2CC(N(C)C)C(O)C(C)O2)c1C3=O` (stereo unspecified), the TGI is 4.45 µM in the assay on DMS 114 small cell lung; 5.36 µM with P388 leukemia; 0.735 µM in the assay with BT-549 breast; 14.5 µM and 8.8 µM in the assay with MCF7 breast; more than 35.2 µM in the assay on DLD-1 colon; 2.52 µM in the assay on SN12K1 renal. Also, the TGI was more than 100 µM with HOP-18 NSCLC, 25 µM in the assay on KM20L2 colon, 0.764 µM in the assay with MDA-MB-231 breast and 0.46 µM in the assay on MDA-N.
With `NC(C/[N+]([O-])=N/O)C(=O)O` (stereo unspecified), the TGI is 10.9 µM in the assay with DMS 114 small cell lung; 337 µM in the assay with P388 leukemia; more than 500 µM with BT-549 breast; > 100 µM and 295 µM in the assay on MCF7 breast; 40.1 µM in the assay with XF 498 CNS; more than 500 µM in the assay with DLD-1 colon. Moreover, the TGI is 257 µM in the assay with SN12K1 renal; more than 472 µM in the assay with HOP-18 NSCLC; more than 500 µM in the assay with KM20L2 colon; more than 500 µM in the assay on MDA-MB-231 breast; more than 500 µM with MDA-N. Moreover, the GI50 was 4.46 µM and 9.57 µM and 9.78 µM with BT-549 breast; 1.2 µM and 4.17 µM and 1.15 µM in the assay on MCF7 breast.
